Patent publication US7417162B2, “Oily ingredient for cosmetic preparation and cosmetic preparation” (Kyowa Yuka Co., Ltd., priority 2001, dated 2008)

Assay: Test for solubility of a UV-A absorber in the oil
Assay type: physicochemical
Conditions: for Solubility of a UV-A absorber: UV-A absorber dissolved to saturation in the compound
Description: Then, absorbance (A) of a peak observed near 350 nm was measured. Solubility was figured out from a value calculated by the following equation and a weight of a sample prepared. The measurement temperatures are at room temperature ([…]) and 50° C.

- Solubility of a UV-A absorber (50° C.): 40.7 g/100 g
- Solubility of the UV-A absorber, in words (in comparison to comparative compound 1): excellent
- Solubility of a UV-A absorber (room temperature (25° C.)): 23.1 g/100 g
Compound: CCC(CC(CC)C(=O)OC)C(=O)OC (stereo not drawn) [Compound 3, dimethyl 2,4-diethylglutarate]
